Values of other authors, collected in US8309543B2 (priority 2003, dated 2012).

Experiments:
NaV1.3 = NaV1.3 (Homo sapiens, UniProt Q9NY46); settings: read-out: TTX IC50
NaV1.8 = NaV1.8 (Homo sapiens, UniProt Q9Y5Y9); settings: read-out: TTX IC50
[1] = in vivo

Chain of NaV1.3 (Q9NY46 whole entry, looked up): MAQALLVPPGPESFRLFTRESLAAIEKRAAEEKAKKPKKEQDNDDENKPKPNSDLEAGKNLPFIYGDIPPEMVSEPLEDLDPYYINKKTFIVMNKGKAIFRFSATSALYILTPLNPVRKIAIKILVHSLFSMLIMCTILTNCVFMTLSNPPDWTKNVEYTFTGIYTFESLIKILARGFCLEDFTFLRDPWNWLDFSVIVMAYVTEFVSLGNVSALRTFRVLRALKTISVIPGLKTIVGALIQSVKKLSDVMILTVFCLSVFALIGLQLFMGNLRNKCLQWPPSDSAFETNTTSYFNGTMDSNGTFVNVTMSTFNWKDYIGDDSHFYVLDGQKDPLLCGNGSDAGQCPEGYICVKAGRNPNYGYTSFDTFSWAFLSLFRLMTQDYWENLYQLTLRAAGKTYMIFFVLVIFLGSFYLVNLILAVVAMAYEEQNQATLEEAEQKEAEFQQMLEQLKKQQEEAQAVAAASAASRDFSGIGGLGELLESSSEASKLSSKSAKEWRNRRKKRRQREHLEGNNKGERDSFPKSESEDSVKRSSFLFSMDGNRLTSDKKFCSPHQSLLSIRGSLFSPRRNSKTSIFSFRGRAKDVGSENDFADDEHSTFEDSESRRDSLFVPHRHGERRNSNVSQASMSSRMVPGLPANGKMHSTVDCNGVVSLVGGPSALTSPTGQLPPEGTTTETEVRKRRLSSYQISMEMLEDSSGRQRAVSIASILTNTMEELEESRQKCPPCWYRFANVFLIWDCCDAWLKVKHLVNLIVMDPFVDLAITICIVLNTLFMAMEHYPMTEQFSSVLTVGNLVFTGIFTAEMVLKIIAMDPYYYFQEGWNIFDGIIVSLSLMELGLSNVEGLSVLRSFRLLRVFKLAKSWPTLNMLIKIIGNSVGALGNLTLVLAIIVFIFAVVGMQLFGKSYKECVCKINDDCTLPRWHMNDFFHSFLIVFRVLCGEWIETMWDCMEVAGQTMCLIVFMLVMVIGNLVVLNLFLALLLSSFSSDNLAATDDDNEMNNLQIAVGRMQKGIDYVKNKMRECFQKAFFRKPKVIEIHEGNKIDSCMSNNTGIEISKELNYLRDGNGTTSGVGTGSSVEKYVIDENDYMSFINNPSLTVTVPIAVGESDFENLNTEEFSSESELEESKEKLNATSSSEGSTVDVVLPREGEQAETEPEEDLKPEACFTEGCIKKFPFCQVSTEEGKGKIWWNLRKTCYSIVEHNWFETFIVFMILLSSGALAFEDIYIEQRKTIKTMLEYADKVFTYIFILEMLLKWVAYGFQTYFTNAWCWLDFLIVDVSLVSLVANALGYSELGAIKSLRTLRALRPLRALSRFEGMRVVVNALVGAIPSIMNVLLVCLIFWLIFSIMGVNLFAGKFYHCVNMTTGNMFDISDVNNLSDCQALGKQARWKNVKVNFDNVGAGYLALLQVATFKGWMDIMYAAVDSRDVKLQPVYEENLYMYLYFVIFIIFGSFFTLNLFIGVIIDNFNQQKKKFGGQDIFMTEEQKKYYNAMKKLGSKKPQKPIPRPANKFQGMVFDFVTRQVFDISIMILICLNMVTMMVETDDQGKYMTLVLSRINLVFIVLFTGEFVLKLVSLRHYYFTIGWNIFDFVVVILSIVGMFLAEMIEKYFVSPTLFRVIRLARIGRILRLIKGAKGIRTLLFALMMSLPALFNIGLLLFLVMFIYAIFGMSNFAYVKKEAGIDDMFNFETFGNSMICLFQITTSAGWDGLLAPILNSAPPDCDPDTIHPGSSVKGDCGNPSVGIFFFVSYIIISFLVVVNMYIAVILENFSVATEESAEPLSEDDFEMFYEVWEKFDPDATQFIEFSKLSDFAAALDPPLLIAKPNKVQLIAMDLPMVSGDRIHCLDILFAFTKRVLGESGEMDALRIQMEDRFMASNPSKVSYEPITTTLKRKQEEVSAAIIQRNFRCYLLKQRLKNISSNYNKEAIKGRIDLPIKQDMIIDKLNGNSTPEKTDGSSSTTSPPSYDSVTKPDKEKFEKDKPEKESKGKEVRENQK
Chain of NaV1.8 (Q9Y5Y9 whole entry, looked up): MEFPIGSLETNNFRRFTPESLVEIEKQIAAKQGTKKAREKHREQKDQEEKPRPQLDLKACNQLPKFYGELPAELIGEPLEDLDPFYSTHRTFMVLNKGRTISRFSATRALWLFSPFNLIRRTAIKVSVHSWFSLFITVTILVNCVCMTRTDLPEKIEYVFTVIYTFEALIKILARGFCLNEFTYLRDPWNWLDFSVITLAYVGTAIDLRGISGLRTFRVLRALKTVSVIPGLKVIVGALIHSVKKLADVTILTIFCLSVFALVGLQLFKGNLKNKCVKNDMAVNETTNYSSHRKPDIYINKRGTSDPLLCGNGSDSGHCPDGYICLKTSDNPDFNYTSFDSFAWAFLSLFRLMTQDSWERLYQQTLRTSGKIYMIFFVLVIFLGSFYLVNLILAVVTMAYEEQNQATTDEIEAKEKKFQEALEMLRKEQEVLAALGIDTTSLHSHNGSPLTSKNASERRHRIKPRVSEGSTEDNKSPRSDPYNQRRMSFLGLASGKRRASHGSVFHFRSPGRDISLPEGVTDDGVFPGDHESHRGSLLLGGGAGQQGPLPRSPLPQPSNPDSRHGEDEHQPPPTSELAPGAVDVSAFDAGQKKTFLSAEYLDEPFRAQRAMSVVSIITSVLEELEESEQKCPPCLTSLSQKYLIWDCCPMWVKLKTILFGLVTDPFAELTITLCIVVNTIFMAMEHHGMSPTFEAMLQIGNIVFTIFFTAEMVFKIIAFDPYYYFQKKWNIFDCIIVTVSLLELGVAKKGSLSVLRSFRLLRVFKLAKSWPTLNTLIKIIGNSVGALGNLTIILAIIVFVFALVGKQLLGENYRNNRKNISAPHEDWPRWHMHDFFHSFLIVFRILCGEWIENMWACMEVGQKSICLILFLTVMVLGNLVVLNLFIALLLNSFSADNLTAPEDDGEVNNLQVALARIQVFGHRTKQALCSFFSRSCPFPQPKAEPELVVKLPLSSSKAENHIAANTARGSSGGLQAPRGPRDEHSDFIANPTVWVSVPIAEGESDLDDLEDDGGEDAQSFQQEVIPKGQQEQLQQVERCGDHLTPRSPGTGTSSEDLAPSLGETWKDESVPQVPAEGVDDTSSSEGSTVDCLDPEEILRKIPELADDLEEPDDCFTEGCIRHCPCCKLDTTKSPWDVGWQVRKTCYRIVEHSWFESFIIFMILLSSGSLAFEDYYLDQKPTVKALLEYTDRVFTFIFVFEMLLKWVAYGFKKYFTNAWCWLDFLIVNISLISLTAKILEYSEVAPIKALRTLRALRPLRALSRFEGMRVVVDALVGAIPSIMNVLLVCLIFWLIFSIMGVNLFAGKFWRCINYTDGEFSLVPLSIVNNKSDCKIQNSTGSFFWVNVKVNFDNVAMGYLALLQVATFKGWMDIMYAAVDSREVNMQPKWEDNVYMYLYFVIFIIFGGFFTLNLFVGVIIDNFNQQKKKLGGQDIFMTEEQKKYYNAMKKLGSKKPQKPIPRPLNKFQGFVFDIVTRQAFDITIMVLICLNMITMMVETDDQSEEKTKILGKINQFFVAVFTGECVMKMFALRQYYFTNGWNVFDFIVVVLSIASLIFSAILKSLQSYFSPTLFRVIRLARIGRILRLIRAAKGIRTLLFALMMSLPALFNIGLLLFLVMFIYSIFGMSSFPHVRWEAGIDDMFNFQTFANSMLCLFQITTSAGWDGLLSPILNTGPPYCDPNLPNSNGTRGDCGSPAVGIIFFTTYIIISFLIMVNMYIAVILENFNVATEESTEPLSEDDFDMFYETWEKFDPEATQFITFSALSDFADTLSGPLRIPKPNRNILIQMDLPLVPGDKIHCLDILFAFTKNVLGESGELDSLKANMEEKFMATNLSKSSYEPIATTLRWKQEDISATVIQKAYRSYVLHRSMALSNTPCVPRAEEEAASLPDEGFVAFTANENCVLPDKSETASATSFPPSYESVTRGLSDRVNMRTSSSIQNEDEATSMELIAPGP

Row | SMILES | IC50 (NaV1.3) [nM] | IC50 (NaV1.8) [nM] | share of patients in which the drug works [1] [%]
1 | NC1=N[C@H](O)[C@H]2[C@H]3O[C@]4(O)O[C@@H]([C@@H](O)[C@@]2(N1)[C@@H]4O)[C@]3(O)CO [TTX, tetrodotoxin] | 15 | > 50000 | –
2 | NCC1(CC(=O)O)CCCCC1 [Gabapentin] | – | – | 60
